The record followed here is patent US7816522B2, “Triazolone derivatives” (Eisai Co., Ltd., priority 2006, dated 2010).

Counter-ions that a name gives are not always drawn.

T1 sequence (P08709 213-466 limits assumed): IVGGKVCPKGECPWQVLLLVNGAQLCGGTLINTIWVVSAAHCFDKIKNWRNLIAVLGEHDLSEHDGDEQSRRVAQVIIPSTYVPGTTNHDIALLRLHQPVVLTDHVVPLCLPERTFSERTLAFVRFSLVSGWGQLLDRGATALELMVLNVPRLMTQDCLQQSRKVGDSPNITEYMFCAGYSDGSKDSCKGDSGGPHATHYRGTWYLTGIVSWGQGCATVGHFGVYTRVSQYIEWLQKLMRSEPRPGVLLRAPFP
T1 sequence (P08709 61-212 limits assumed): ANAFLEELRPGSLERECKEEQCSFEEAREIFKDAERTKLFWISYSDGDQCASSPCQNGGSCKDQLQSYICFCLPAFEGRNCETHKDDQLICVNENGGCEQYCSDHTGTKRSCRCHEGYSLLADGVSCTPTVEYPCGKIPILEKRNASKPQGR
T1 sequence (P13726 33-295 partner): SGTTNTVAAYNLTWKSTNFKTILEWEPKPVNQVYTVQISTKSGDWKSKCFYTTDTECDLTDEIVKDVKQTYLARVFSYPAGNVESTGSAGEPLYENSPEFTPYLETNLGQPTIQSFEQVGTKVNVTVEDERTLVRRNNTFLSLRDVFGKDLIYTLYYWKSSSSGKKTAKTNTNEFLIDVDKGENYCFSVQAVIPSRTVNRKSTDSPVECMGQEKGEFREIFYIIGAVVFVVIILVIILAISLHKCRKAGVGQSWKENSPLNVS

This assay concerns the target T1, human clotting factor VIIa (Homo sapiens, UniProt P08709).
T1 construct: a human clotting factor VIIa (hereinafter, “Factor VIIa”) purified sample; purchased Enzyme Research Laboratories HFVIIa
Put plainly: Inhibitory activity against clotting factor VIIa (chromogenic substrate Spectrozyme FVIIa, TF/Factor VIIa enzyme solution). To be noted: human Factor VIIa 5 nmol/L with human TF 10 nmol/L, room temperature 40 minutes, 405 nm. It is filed as biochemical. The method, boiled down:
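Human Factor VIIa (5 nmol/L) with human TF (10 nmol/L) in Tris-BSA buffer pH 7.4 containing 15 mmol/L CaCl2 and cephalin, with Spectrozyme FVIIa substrate. Reaction 40 min at room temperature; 4-nitroanilide read at 405 nm. IC50 by non-linear regression over 100 μmol/L–0.1 nmol/L.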
A word on the IC50: it is the point on the concentration scale where inhibition reaches its midpoint. As for `COc1cc(C(Nc2ccc(C(=N)N)cc2)c2nn(-c3ncccn3)c(=O)[nH]2)cc(CC#N)c1F` (racemic) [Example 131, (R) and (S)-4-{[(3-cyanomethyl-4-fluoro-5-methoxyphenyl)-(5-oxo-1-pyrimidin-2-yl-4,5-dihydro-1H-[1,2,4]triazol-3-yl)methyl]amino}benzamidine acetate], the IC50 was 5.6 nM.

The molecule `COc1cc(C(Nc2ccc(C(=N)N)cc2)c2nn(-c3ncsc3C(=O)O)c(=O)[nH]2)cc(OCCO)c1OC` (racemic) [Example 233, (R) and (S)-4-(3-{(4-Carbamimidoylphenylamino)-[3-(2-hydroxyethoxy)-4,5-dimethoxyphenyl]methyl}-5-oxo-4,5-dihydro-[1,2,4]triazol-1-yl)thiazole-5-carboxylic acid] had an IC50 of 23.8 nM.

Molecule `COc1cc(C(Nc2ccc(C(=N)N)cc2)c2nn(-c3ncsc3C(=O)O)c(=O)[nH]2)c(F)c2c1OCCO2` (single isomer, unassigned) [Example 188, 4-{3-[(4-Carbamimidoylphenylamino)-(5-fluoro-8-methoxy-2,3-dihydro-benzo[1,4]dioxin-6-yl)-methyl]-5-oxo-4,5-dihydro-[1,2,4]triazol-1-yl}thiazole-5-carboxylic acid] yielded an IC50 of 22.4 nM.

As to `COc1ccc(C(Nc2ccc(C(=N)N)cc2)c2nn(-c3ccccc3C(N)=O)c(=O)[nH]2)cc1OC` (racemic) [Example 110, (R) and (S)-2-{3-[(4-carbamimidoylphenylamino)-(3,4-dimethoxyphenyl)methyl]-5-oxo-4,5-dihydro-1H-[1,2,4]triazol-1-yl}benzamide acetate], the IC50 is 6.6 nM.

`COc1cc(C(Nc2ccc(C(=N)N)cc2)c2nn(-c3ccsc3C(=O)O)c(=O)[nH]2)cc(OCCO)c1OC` (racemic) [Example 230, (R) and (S)-3-(3-{(4-Carbamimidoylphenylamino)-[3-(2-hydroxyethoxy)-4,5-dimethoxyphenyl]methyl}-5-oxo-4,5-dihydro-[1,2,4]triazol-1-yl)thiophene-2-carboxylic acid]: the IC50 was determined as 4.9 nM.

Molecule `COc1cc(F)c(C(Nc2ccc(C(=N)N)cc2)c2nn(-c3ccccc3C(=O)O)c(=O)[nH]2)cc1OC` (racemic) [Example 1, (R) and (S)-2-{3-[(4-carbamimidoylphenylamino)-(2-fluoro-4,5-dimethoxyphenyl)methyl]-5-oxo-4,5-dihydro-[1,2,4]triazol-1-yl}benzoic acid acetate] yielded an IC50 of 7.5 nM. This IC50 is about 1.5-fold higher than that of the molecule before.

Regarding `COc1cc(C(Nc2ccc(C(=N)N)cc2)c2nn(-c3ncccc3F)c(=O)[nH]2)cc2c1OCOC2` (racemic) [Example 133, (R) and (S)-4-({[1-(3-fluoropyridin-2-yl)-5-oxo-4,5-dihydro-1H-[1,2,4]triazol-3-yl]-(8-methoxy-4H-benzo[1,3]dioxin-6-yl)methyl}amino)benzamidine acetate], the IC50 was found to be 6.3 nM.

`COc1ccc(C(Nc2ccc(C(=N)N)cc2)c2nn(-c3ncccn3)c(=O)[nH]2)cc1OCCF` (racemic) [Example 117, (R) and (S)-4-({[3-(2-fluoroethoxy)-4-methoxyphenyl]-(5-oxo-1-pyrimidin-2-yl-4,5-dihydro-1H-[1,2,4]triazol-3-yl)methyl}amino)benzamidine acetate] yielded an IC50 of 22.4 nM. Compared with the last molecule, the IC50 is about 3.6-fold higher.

`CCOc1cc(OCCF)c(F)c(C(Nc2ccc(C(=N)N)cc2)c2nn(-c3ncccn3)c(=O)[nH]2)c1` (racemic) [Example 68, (R) and (S)-4-({[2-fluoro-3-(2-fluoroethoxy)-5-ethoxyphenyl]-(5-oxo-1-pyrimidin-2-yl-4,5-dihydro-1H-[1,2,4]triazol-3-yl)methyl}amino)benzamidine acetate] showed an IC50 of 6.7 nM.

In the case of `COc1cc(OCCO)c(F)c(C(Nc2ccc(C(=N)N)c(F)c2)c2nn(-c3ncccn3)c(=O)[nH]2)c1` (racemic) [Example 218, 2-Fluoro-4-{[[2-fluoro-3-(2-hydroxyethoxy)-5-methoxyphenyl]-(5-oxo-1-pyrimidin-2-yl-4,5-dihydro-1H-[1,2,4]triazol-3-yl)methyl]amino}benzamidine], the midpoint of inhibition, the IC50, lay at 52.4 nM. Compared with the last molecule, the IC50 is about 7.8-fold higher.

As for `COC(=O)c1ccccc1-n1nc(C(Nc2ccc(C(=N)N)cc2)c2cc(OC)c(OC)cc2F)[nH]c1=O` (racemic) [Example 108, (R) and (S)-2-{3-[(4-carbamimidoylphenylamino)-(2-fluoro-4,5-dimethoxyphenyl)methyl]-5-oxo-4,5-dihydro-[1,2,4]triazol-1-yl}benzoic acid methyl ester acetate], the concentration for half-maximal inhibition (IC50) was 8 nM.

In turn, `CCc1cc(C(Nc2ccc(C(=N)N)cc2)c2nn(-c3ncsc3C(=O)O)c(=O)[nH]2)cc2c1OCOC2` (racemic) [Example 179, (R) and (S)-4-{3-[(4-carbamimidoylphenylamino)-(8-ethyl-4H-benzo[1,3]dioxin-6-yl)methyl]-5-oxo-4,5-dihydro-[1,2,4]triazol-1-yl}thiazole-5-carboxylic acid] registered an IC50 of 9.9 nM.

`COc1cc(OCCO)c(F)c(C(Nc2ccc(C(=N)N)cc2)c2nn(-c3ncc[nH]c3=O)c(=O)[nH]2)c1` (racemic) [Example 199, (R) and (S)-4-({[2-Fluoro-3-(2-hydroxyethoxy)-5-methoxyphenyl]-[5-oxo-1-(3-oxo-3,4-dihydropyrazin-2-yl)-4,5-dihydro-1H-[1,2,4]triazol-3-yl]methyl}amino)benzamidine acetate]: the midpoint of inhibition, the IC50, lay at 24.1 nM.

Molecule `CCc1cc(OCCCO)c(F)c(C(Nc2ccc(C(=N)N)cc2)c2nn(-c3ncccc3N)c(=O)[nH]2)c1` (stereo not drawn) [Example 204, 4-({[1-(3-Aminopyridin-2-yl)-5-oxo-4,5-dihydro-1H-[1,2,4]triazol-3-yl]-[5-ethyl-2-fluoro-3-(3-hydroxypropoxy)phenyl]methyl}amino)benzamidine acetate] showed an IC50 of 2.7 nM.

With `COc1cc(OC)c(F)c(C(Nc2ccc(C(=N)N)cc2)c2nn(-c3cccc(C(=O)O)n3)c(=O)[nH]2)c1` (stereo not drawn) [Example 210, 6-{3-[(4-Carbamimidoylphenylamino)-(2-fluoro-3,5-dimethoxyphenyl)methyl]-5-oxo-4,5-dihydro-[1,2,4]triazol-1-yl}pyridine-2-carboxylic acid trifluoroacetate], half-maximal inhibition (IC50) required 39.1 nM.

Take `CCOC(=O)c1cn[nH]c1-n1nc(C(Nc2ccc(C(=N)N)cc2)c2cc(OC)c3c(c2F)OCCCO3)[nH]c1=O` (stereo not drawn) [Example 192, 5-{3-[(4-Carbamimidoylphenylamino)-(6-fluoro-9-methoxy-3,4-dihydro-2H-benzo[b][1,4]dioxepin-7-yl)methyl]-5-oxo-4,5-dihydro-[1,2,4]triazol-1-yl}-1H-pyrazole-4-carboxylic acid ethyl ester acetate]: the IC50 was 5.4 nM. This IC50 lies about 7.2-fold lower than the previous one.

The molecule `COc1ccccc1-n1nc(C(Nc2ccc(C(=N)N)cc2)c2cc(C)cc(OCCF)c2F)[nH]c1=O` (stereo not drawn) [Example 91, 4-({[2-fluoro-3-(2-fluoroethoxy)-5-methylphenyl]-[1-(2-methoxyphenyl)-5-oxo-4,5-dihydro-1H-[1,2,4]triazol-3-yl]methyl}amino)benzamidine trifluoroacetate] registered an IC50 of 6.4 nM.

As for `COc1cc(C(Nc2ccc(C(=N)N)cc2)c2nn(-c3ccsc3C(=O)O)c(=O)[nH]2)c(F)cc1OCCO` (racemic) [Example 237, 3-(3-{(4-Carbamimidoylphenylamino)-[2-fluoro-4-(2-hydroxyethoxy)-5-methoxyphenyl]methyl}-5-oxo-4,5-dihydro-[1,2,4]triazol-1-yl)thiophene-2-carboxylic acid], half-maximal inhibition (IC50) required 23.5 nM.

Molecule `COc1cc(C(Nc2ccc(C(=N)N)cc2)c2nn(-c3ccsc3C(=O)O)c(=O)[nH]2)c(F)c2c1OCC2` (racemic) [Example 215, (R) and (S)-3-{3-[(4-Carbamimidoylphenylamino)-(4-fluoro-7-methoxy-2,3-dihydrobenzofuran-5-yl)methyl]-5-oxo-4,5-dihydro[1,2,4]triazol-1-yl}thiophene-2-carboxylic acid] showed a concentration for half-maximal inhibition (IC50) of 3.4 nM.

On to `CCOC(=O)c1cn[nH]c1-n1nc(C(Nc2ccc(C(=N)N)cc2)c2cc(OC)c(OC)cc2F)[nH]c1=O` (stereo not drawn) [Example 157d, 5-{3-[(4-carbamimidoylphenylamino)-(2-fluoro-4,5-dimethoxyphenyl)methyl]-5-oxo-4,5-dihydro-[1,2,4]triazol-1-yl}-1H-pyrazole-4-carboxylic acid ethyl ester], for which the IC50 is 6.9 nM.

`COCc1cc(OC)cc(C(Nc2ccc(C(=N)N)cc2)c2nn(-c3cccnn3)c(=O)[nH]2)c1` (racemic) [Example 73, (R) and (S)-4-{[(3-methoxy-5-methoxymethylphenyl)-(5-oxo-1-pyridazin-3-yl-4,5-dihydro-1H-[1,2,4]triazol-3-yl)methyl]amino}benzamidine trifluoroacetate] gave an IC50 of 11.2 nM.

On to `COc1cc(C(Nc2ccc(C(=N)N)cc2)c2nn(-c3ncccn3)c(=O)[nH]2)cc2c1OCOCC2` (racemic) [Example 130, (R) and (S)-4-{[(4-methoxy-8,9-dihydro-5,7-dioxabenzocyclohepten-2-yl)-(5-oxo-1-pyrimidin-2-yl-4,5-dihydro-1H-[1,2,4]triazol-3-yl)methyl]amino}benzamidine acetate], for which it took 10.6 nM to reach half-maximal inhibition (IC50).

For the molecule `CCOC(=O)c1cn[nH]c1-n1nc(C(Nc2ccc(C(=N)N)cc2)c2cc(OC)c3c(c2F)OCCO3)[nH]c1=O` (stereo not drawn) [Example 197, 5-{3-[(4-Carbamimidoylphenylamino)-(5-fluoro-8-methoxy-2,3-dihydrobenzo[1,4]dioxin-6-yl)methyl]-5-oxo-4,5-dihydro-[1,2,4]triazol-1-yl}-1H-pyrazole-4-carboxylic acid ethyl ester trifluoroacetate], the IC50 was 7.8 nM.

For the molecule `CCc1cc(OC)cc(C(Nc2ccc(C(=N)N)cc2)c2nn(-c3ncccn3)c(=O)[nH]2)c1` (racemic) [Example 75, (R) and (S)-4-{[(3-ethyl-5-methoxyphenyl)-(5-oxo-1-pyrimidin-2-yl-4,5-dihydro-1H-[1,2,4]triazol-3-yl)methyl]amino}benzamidine acetate], the IC50 stood at 5.2 nM. This IC50 lies about 1.5-fold lower than the previous one.
